{"source": "patent US9469878B2", "about": "“Methods of treating cancer comprising targeting NQO1” (The Board of Regents of the University of Texas System, priority 2010, dated 2016)", "key": {"[1]": {"system": "HMEC 1585 normal human mammary epithelial cells", "experimental": "Cells were cultured and treated as described above. […] Experiments were repeated at least three times, and data expressed as relative survival (treated/control×100%) means±SEM. […] The multi-target model was used to describe the shape of relative survival curves. In this model, a final slope (D0) resulting from multiple-event killing and quasithreshold (Dq) doses were used to represent the size or width of the shoulder of the curve. The extrapolation number (n) is also a measure of the width of the shoulder. The three parameters, n, Do, and Dq were related by the expression: loge n=Dq/Do.\nCells were treated with β-lap with or without dicoumarol for 2 h. […] Data were expressed as relative survival (treated/control×100%). Experiments were repeated at least three times, and data expressed as relative survival means±SEM. […] Human mammary epithelial cells were plated in 48 well dishes in growth media containing a 50:50 mixture of MGEM/DME:F12 medium supplemented with insulin, human epidermal growth factor and hydrocortisone."}, "Calu-3/NSCLC": {"system": "Calu-3/NSCLC", "experiment": "β-lapachone lethality in NQO1 genotyped cancer cells", "assay_type": "cell-based, human", "experimental": "(§1) Cell lines, mostly from a 5-panel nonsmall cell lung cancer panel from the UT Southwestern SPORE, were assessed for NQO1 polymorphism status and then monitored for NQO1 enzyme assays using β-lapachone or the standard menadione substrates. Cell line responses to β-lapachone exposures (μM, 2 h) were then assessed and lethal doses causing 50% lethality with or without dicoumarol (40 μM) co-treatments were recorded. NQO1*2/*2 and *3/*3 polymorphisms were detected from NQO1 *1/*1 wild-type sequences by PCR-RFLP. Genomic DNA was extracted from the cells using Qiagen spin columns. Using previously described oligonucleotide primers, PCR products underwent gel electrophoresis. Final genotyping was determined based on the size and pattern of separated bands diagnostic for *1/*1 (wild-type), or polymorphic *2/*2 or *3/*3 NQO1 polymorphisms."}, "H2009/NSCLC": {"system": "H2009/NSCLC", "experiment": "β-lapachone lethality in NQO1 genotyped cancer cells", "assay_type": "cell-based, human", "experimental": "as §1"}, "HCC2935": {"system": "HCC2935", "experiment": "β-lapachone lethality in NQO1 genotyped cancer cells", "assay_type": "cell-based, human", "experimental": "as §1"}, "[2]": {"system": "wild-type *1/*1 non-small cell lung cancer (NSCLC) cell lines", "experiment": "LD50 responses of NSCLC cell lines treated with β-Lap", "assay_type": "cell-based, human", "details": "all of the wild-type *1/*1 NSCLC cells, 2 h treatment, 7 days later", "experimental": "FIG. 16 depicts NQO1 levels predict response to NQO1 bioactivatable therapies. In (a) LD50 responses of non-small cell lung cancer (NSCLC) cell lines treated with β-Lap for 2 h and harvester 7 days later. LD50 responses were plotted as a function of NQO1 enzymatic levels. The notations, *1/*1 and *2/*2 represent the NQO1 status of each cell line as homozygous wild type (*1/*1) or homozygous polymorphic (*2/*2) genotypes. Note that all heterozygote cells containing one wild-type allele (*1) are wild-type, phenotypically, for NQO1 expression, such that only homozygous *2/*2 or 3/3 are considered non-responsive to NQO1 bioactivatable drugs. Note the high resistance of H596 and H2862 cell lines to β-lapachone compared to all of the wild-type *1/*1 cells with LD50 values less than 5 μM. Note also that *3/*3 SNPs in NQO1 are far more rare than *2/*2 single point mutations in NQO1. In (b), Kaplan-Meier survival curve of mice bearing orthotopic lung tumors implanted with *1/*1 A549 cells. Mice were treated intravenously (5 doses every other day) with β-lap-HPβ-CD or vehicle alone (HPβ-CD). Similar studies with *2/*2 or *3/*3 tumors were performed and these tumors were non-responsive to β-lapachone or other NQO1 bioactivatable drug therapies."}, "[3]": {"biological_target": "T1, NQO1 in 231-NQ+ cell extracts (Homo sapiens, UniProt P15559)", "T1 construct": "expressed in transfected cells; host or cells: MDA-MB-231 (231-NQ+), S9 supernatant", "T1 sequence (P15559 whole entry)": "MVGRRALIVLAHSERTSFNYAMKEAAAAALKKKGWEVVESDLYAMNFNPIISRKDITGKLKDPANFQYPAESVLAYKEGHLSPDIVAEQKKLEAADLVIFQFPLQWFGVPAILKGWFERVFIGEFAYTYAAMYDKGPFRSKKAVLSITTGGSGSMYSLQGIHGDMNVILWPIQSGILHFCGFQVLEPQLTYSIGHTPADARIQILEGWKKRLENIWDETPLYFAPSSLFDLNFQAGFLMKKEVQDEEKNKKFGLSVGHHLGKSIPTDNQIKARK", "experiment": "Oxygen consumption in S9 cell extracts", "assay_type": "biochemical", "details": "in 4 h, 231-NQ+ versus 231-NQ− cell extracts"}, "[4]": {"system": "NQO1-deficient LNCaP cells", "experiment": "Relative survival assay", "assay_type": "cell-based, human", "experimental": "Relative DNA cell survival assays were assessed after various treatments. […] Cells were then mock-treated or treated with various doses of β-lap (for 2 h) in the presence or absence of dicoumoral as indicated. Drug-free medium was then added and cells allowed to grow for 5-7 days until control cells reached ˜100% confluence. […] Results were reported as means±SE from at least three independent experiments."}, "NQO1+ human cancer cells": {"system": "NQO1+ human cancer cells", "details": "cited from earlier work"}, "NQO1": {"biological_target": "NQO1 (Homo sapiens, UniProt P15559)", "sequence (P15559 whole entry)": "as above", "experiment": "NQO1 enzyme assays using β-lapachone or the standard menadione substrates", "assay_type": "biochemical", "set-up": "S9 Supernatants were prepared from cells in mid-log to late log phase growth; endogenous in cells; host or cells: cancer cell lines, mostly from a non-small cell lung cancer panel; S9 supernatants", "details": "β-lapachone as substrate, H1993 *1/*1", "experimental": "S9 Supernatants were prepared from cells in mid-log to late log phase growth. […] The cell suspensions were sonicated on ice four times, using 10-s pulses, and then centrifuged at 14,000×g for 20 min. The S9 supernatants were aliquoted into microcentrifuge tubes and stored at −80° C. until used. A 1× protease inhibitor cocktail was added to prevent enzyme activity degradation. […] Menadione was used as the electron acceptor. NADH was used as the electron donor.\nNQO1 activity was measured using NADH (200 μM) as the immediate electron donor and menadione (10 μM) as the intermediate electron acceptor. […] Biochem. Biophys. […] NADH: cytochrome b5 reductase was measured using NADH (200 μM) as the electron donor, and […] was measured using NADPH (200 μM) as electron donor (45) in a Beckman DU 640 spectrophotometer (Beckman Coulter, Fullerton, Calif.). Reactions were carried out at 37° C. and were initiated by the addition of S9 supernatants. Varying amounts of supernatants, from 10 to 40 μL, were used to ensure linearity of rates with protein concentration. […] Results shown are the average enzyme activity for three separate cell extractions±S.D. or both values from duplicate experiments.\nas §1, with “Cell line responses to β-lapachone exposures (μM, 2 h) were then assessed and lethal doses causing 50% lethality with or without dicoumarol (40 μM) co-treatments were recorded.” left out"}, "[5]": {"details": "*3/*3, 2 h, + dicoumarol (40 μM)"}, "[6]": {"details": "NQO1 genotype *3/*3, 2 h exposure"}}}
{"smiles": "CC1(C)CCC2=C(O1)c1ccccc1C(=O)C2=O", "note": "[β-Lap, 3,4-dihydro-2,2-dimethyl-2H-naphtho[1,2-b]pyran-5,6-dione]", "values": [{"measurement": "LD50 β-Lap", "setting": "[1]", "value": ">10"}, {"measurement": "LD50 + DIC", "setting": "Calu-3/NSCLC; [5]", "value": 3, "unit": "µM"}, {"measurement": "β-Lap Lethality LD50", "setting": "Calu-3/NSCLC; [6]", "value": 2.4, "unit": "µM"}, {"measurement": "LD50 + DIC", "setting": "H2009/NSCLC; [5]", "value": 5.4, "unit": "µM"}, {"measurement": "β-Lap Lethality LD50", "setting": "H2009/NSCLC; [6]", "value": 4.3, "unit": "µM"}, {"measurement": "LD50 + DIC", "setting": "HCC2935; HCC2935, *1/*3, 2 h, + dicoumarol (40 μM)", "value": ">10", "unit": "µM"}, {"measurement": "β-Lap Lethality LD50", "setting": "HCC2935; HCC2935, NQO1 genotype *1/*3, 2 h exposure", "value": 1.0, "unit": "µM"}, {"measurement": "LD50", "setting": "[2]", "value": "less than 5 μM"}, {"measurement": "Increase of O2 consumption", "setting": "[3]", "value": "~40", "unit": "fold"}, {"measurement": "Response to β-lap", "setting": "[4]", "value": "not responsive"}, {"measurement": "Lethality", "setting": "NQO1+ human cancer cells; 1-2 μM treatments for 2-4 h", "value": "not lethal"}, {"measurement": "Cell death responses (TUNEL staining)", "setting": "NQO1+ human cancer cells; 2-3 μM for 2-4 h", "value": "> 90", "unit": "%"}, {"measurement": "NQO1 activity, β-Lap", "setting": "NQO1", "value": "1940 ± 12", "unit": "nmol/min/µg"}]}
